The nature of data set [1]: Assay 1: half-life and plasma clearance upon intravenous administration to beagle dogs. Type of data set: in vivo. Conditions: iv dose up to 0.3 mg/kg, Phoenix PK/PD (Example 1: internal tool); for clearance / half-life: dog, geometric mean; for half-life: read-out: Half-life (h/Form) iv, geometric mean (converted). How it is done:
Assay 1: Determination of Half-Life and Plasma Clearance of Compounds of the Invention Upon Administration to Beagle Dogs
Compounds according to the invention were administered as an intravenous (iv) dose (up to 0.3 mg/kg) to beagle dogs (minimum n=3). Blood samples were collected from these beagle dogs up to 168 h after intravenous administration and up to 3024 h after subcutaneous administration. A portion of each whole blood sample was processed to plasma. Compound concentrations were determined in plasma using LCMS/MS. Phoenix™ Pharmacokinetic and Pharmacodynamic (PK/PD) was used to determine half-life and plasma clearance values. Only for Example 1, an internal tool available to the inventors was used to determine the half-life and plasma clearance values.

In data set [2] the test system is Ancylostoma caninum. The data set is described as follows: Assay 3: residual efficacy against hookworm infection in dogs (cohorts B and C). Type of data set: in vivo. Conditions: for % Reduction of Mean Fecal Egg Count / % Reduction of Mean Number of Recovered Hookworms: vs control; for Mean Number of Recovered Hookworms: after final FEC. How it is done:
(§1) 12 dogs were allocated to one of six groups in three cohorts. Each cohort comprised a negative control group (n=2) (‘Control group’) and a group (n=2) treated with the compound of Example 9 (‘Treatment group’).
(§2) Dogs in negative control groups were administered an equivalent volume of vehicle solution.
(§3) All dogs were infected with 100-300 hookworm (Ancylostoma caninum) 3rd-stage larvae (L3s) via oral gavage (W.A.A.V.P. Guidelines, First edition; Jacobs, D. E., A. Arakawa, C. H. Courtney, et al., 1994. Vet. Parasitol. 52: 179-202). The cohorts were treated as follows: • Cohort A: The compound of Example 9 or the vehicle solution was administered 15 days after infection with Ancylostoma caninum • Cohort B: The compound of Example 9 or the vehicle solution was administered 30 days prior to infection with Ancylostoma caninum • Cohort C: The compound of Example 9 or the vehicle solution was administered 60 days prior to infection with Ancylostoma caninum
(§4) Fecal egg counts (FECs, eggs per gram of feces) were obtained from each dog 15, 20, 25 and 30 days after hookworm infection.
(§5) Following the final FEC, dogs were dewormed with a commercial anthelmintic and feces were collected for 48 hours. Fecal output from each dog was soaked in water for a minimum of 30 minutes and processing through 250 μm, 150 μm and 38 μm sieves to recover expelled adult and immature hookworms. Expelled hookworms were preserved in fixative (5% formalin) and counted.

Data set [3] has as its system Dirofilaria immitis. Description: Assay 2: prevention test, Dirofilaria immitis heartworm infection in dogs (modified Knott and heartworm antigen tests).
Data set [4] deals with Dirofilaria immitis. Description: Assay 2: residual protection test, second Dirofilaria immitis infection of dogs 90 days after treatment.
In data set [5] the test system is Ancylostoma caninum. Description: Assay 3: treatment of an existing hookworm infection in dogs (cohort A). Type of data set: in vivo. Conditions: 30 mg/kg subcutaneous 15 days after infection. The method, then:
as §1, §2, §3, §4, §5
Cohort A was designed to evaluate effectiveness against patent adult hookworm infections present at the time of treatment with the compound of Example 9.

[6] abbreviates: cohort B, 30 mg/kg subcutaneous 30 days prior to infection, 15 days after infection.
Setting [7] is: cohort B, 30 mg/kg subcutaneous 30 days prior to infection, 20 days after infection.
The mark [8] stands for this setting: cohort B, 30 mg/kg subcutaneous 30 days prior to infection, 25 days after infection.
The mark [9] stands for this setting: cohort B, 30 mg/kg subcutaneous 30 days prior to infection, 30 days after infection.
Where [10] appears, read: cohort B, 30 mg/kg subcutaneous 30 days prior to infection.
The mark [11] stands for this setting: cohort C, 30 mg/kg subcutaneous 60 days prior to infection, 15 days after infection.
The mark [12] stands for this setting: cohort C, 30 mg/kg subcutaneous 60 days prior to infection, 20 days after infection.
Setting [13] is: cohort C, 30 mg/kg subcutaneous 60 days prior to infection, 25 days after infection.
The mark [14] stands for this setting: cohort C, 30 mg/kg subcutaneous 60 days prior to infection, 30 days after infection.
Where [15] appears, read: cohort C, 30 mg/kg subcutaneous 60 days prior to infection.

On to `Cc1nn2c(C(C)C)c(C(=O)N[C@H]3CCOc4ccccc43)cnc2c1-c1ccc(F)c(F)c1` [Example 3, (S)—N-(chroman-4-yl)-3-(3,4-difluorophenyl)-7-isopropyl-2-methylpyrazolo[1,5-a]pyrimidine-6-carboxamide], for which, in data set [1] (plasma), the clearance (as a rule, a measure of how efficiently the substance is removed, as volume per time) was 3 mL/min/kg and the half-life is 2250 min.
In the case of `O=C(N[C@H]1CCOc2ccccc21)c1cnc2c(-c3cc(F)cc(F)c3F)cccc2c1C1COC1` [Example 11, (S)—N-(chroman-4-yl)-4-(oxetan-3-yl)-8-(2,3,5-trifluorophenyl)quinoline-3-carboxamide], in data set [1] (plasma), the clearance is 5 mL/min/kg and the half-life is 2870 min.
For `O=C(N[C@H]1CCOc2ccccc21)c1cnc2c(-c3cc(F)cc(F)c3F)cccc2c1C1CCOCC1` [Example 12, N-[(4S)-3,4-Dihydro-2H-chromen-4-yl]-4-(tetrahydro-2H-pyran-4-yl)-8-(2,3,5-trifluorophenyl)quinoline-3-carboxamide], in that order: 17 mL/min/kg and 1290 min.
Turning to `O=C(N[C@H]1CCOc2ccccc21)c1cnc2c(-c3cc(F)cc(F)c3F)c(F)ccc2c1[C@H]1C[C@H](F)C1` [Example 9, N—((S)-chroman-4-yl)-7-fluoro-4-((1R,3S)-3-fluorocyclobutyl)-8-(2,3,5-trifluorophenyl)quinoline-3-carboxamide], the “Mean Fecal Egg Count” value in the data set with Ancylostoma caninum [2] (setting [6]), in the data set on Ancylostoma caninum [2] (setting [7]), in the data set with Ancylostoma caninum [2] (setting [8]), with Ancylostoma caninum [2] (setting [9]), with Ancylostoma caninum [2] (setting [11]) and in the data set on Ancylostoma caninum [2] (setting [12]) was 0 EPG in each case. Moreover, the “Mean Fecal Egg Count” value in the data set with Ancylostoma caninum [2] (setting [13]) is reported as 0 EPG; in the data set with Ancylostoma caninum [2] (setting [14]) it was 0 EPG; in the data set on Ancylostoma caninum [5] (15 days after infection) it was 0 EPG; with Ancylostoma caninum [5] (20 days after infection), 0 EPG; in the data set on Ancylostoma caninum [5] (25 days after infection), 25 EPG; in the data set on Ancylostoma caninum [5] (30 days after infection), 0 EPG. Further, the “% Reduction of Mean Fecal Egg Count” value in the data set with Ancylostoma caninum [2] (setting [6]), in the data set on Ancylostoma caninum [2] (setting [7]), with Ancylostoma caninum [2] (setting [8]), with Ancylostoma caninum [2] (setting [9]), in the data set with Ancylostoma caninum [2] (setting [11]) and with Ancylostoma caninum [2] (setting [12]) was 100% each time. The “% Reduction of Mean Fecal Egg Count” value was 100% in the data set on Ancylostoma caninum [2] (setting [13]); 100% in the data set on Ancylostoma caninum [2] (setting [14]); 100% in the data set on Ancylostoma caninum [5] (15 days after infection, vs control); 100% in the data set with Ancylostoma caninum [5] (20 days after infection, vs control); 93.75% in the data set with Ancylostoma caninum [5] (25 days after infection, vs control); 100% in the data set with Ancylostoma caninum [5] (30 days after infection, vs control). The results for the “Mean Number of Recovered Hookworms” value in the data set on Ancylostoma caninum [2] (setting [10]), in the data set on Ancylostoma caninum [2] (setting [15]) and with Ancylostoma caninum [5] (after final FEC) were 0, 0 and 0.0, respectively. Further, the “% Reduction of Mean Number of Recovered Hookworms” value in the data set with Ancylostoma caninum [2] (setting [10]), in the data set with Ancylostoma caninum [2] (setting [15]) and in the data set with Ancylostoma caninum [5] (vs control) was 100% each time. Besides, the “duration of 100% protection from infections with hookworm larvae” value with Ancylostoma caninum [2] (cohorts B and C, 30 mg/kg subcutaneous) was “at least 60 days”. For the same compound, the “protection from infections with hookworm larvae” value in the data set on Ancylostoma caninum [2] (cohorts B and C, 30 mg/kg subcutaneous, FECs and expelled worm counts, for at least 60 days) is 100%. The “dogs with positive test results in the modified Knott and heartworm antigen tests” value with Dirofilaria immitis [3] (30 mg/kg subcutaneous 90 days after infection, 150, 180 and 210 days after infection) is “None of the dogs”. For the same compound, the “effectiveness at preventing the development of patent adult heartworm” value with Dirofilaria immitis [3] (dogs, 30 mg/kg subcutaneous, administered 90 days after experimental infection) is on record as 100%. Moreover, in the data set with Dirofilaria immitis [4] (30 mg/kg subcutaneous 90 days before second infection, 149 days after second infection), the “dogs with a positive heartworm antigen test result” value came to 50%. The “residual protection from infection with Dirofilaria immitis” value in the data set with Dirofilaria immitis [4] (dogs, 30 mg/kg subcutaneous prior to second infection) is given as “significant residual protection”. Also, the “reduction in worm burden in the heart and lungs relative to the negative control group” value in the data set with Dirofilaria immitis [4] (dogs, 30 mg/kg subcutaneous prior to second infection, necropsy approx. 5 months after infection, all dogs) is more than 80%. Further, in the data set with Ancylostoma caninum [5], the “Fecal egg count reduction upon treatment” value is more than 90%. In data set [1] (plasma), the clearance was 1.17 mL/min/kg. Further, in data set [1] (plasma), the half-life is 11400 min.
For “(S)—N-(2,3-Dihydro-1H-inden-1-yl)-3-(3-fluorophenyl)-7-isopropyl-2-methylpyrazolo[1,5-a]pyrimidine-6-carboxamide [Example 13]”, in data set [1], the “Plasma Clearance, geometric mean” value is reported as 0.56 L/h/kg. For the same compound, the “Half-life (h/Form) iv, geometric mean” value in data set [1] (plasma) is on record as 45.43 h.
Consider `O=C(N[C@H]1CCOc2ccccc21)c1cnc2c(-c3cc(F)cc(F)c3F)c(F)ccc2c1C1CS(=O)(=O)C1` [Example 8, N-[(4S)-3,4-dihydro-2H-chromen-4-yl]-4-(1,1-dioxidothietan-3-yl)-7-fluoro-8-(2,3,5-trifluorophenyl)quinoline-3-carboxamide], for which, in data set [1] (plasma), the clearance was 11.5 mL/min/kg and the half-life is 2620 min.
As to `Cc1nn2c(C(C)C)c(C(=O)N[C@H]3CCc4ccccc43)cnc2c1-c1cc(Cl)c(F)c(Cl)c1` [Example 2, (S)-3-(3,5-dichloro-4-fluorophenyl)-N-(2,3-dihydro-1H-inden-1-yl)-7-isopropyl-2-methylpyrazolo[1,5-a]pyrimidine-6-carboxamide], in data set [1] (plasma), the clearance is 2.33 mL/min/kg and the half-life was 1140 min.
For `O=C(N[C@H]1CCOc2ccccc21)c1cnc2c(-c3cc(Cl)cc(Cl)c3)c(F)ccc2c1N1CC(F)C1` [Example 5, (S)—N-(chroman-4-yl)-8-(3,5-dichlorophenyl)-7-fluoro-4-(3-fluoroazetidin-1-yl)quinoline-3-carboxamide] the same measures were 1.17 mL/min/kg and 9620 min.
For `O=C(N[C@H]1CCOc2ccccc21)c1cnc2c(-c3cc(F)cc(F)c3F)c(F)ccc2c1C1CCOCC1` [Example 14] the same measures were 3 mL/min/kg and 2610 min.
For `Cc1nn2c(C(C)C)c(C(=O)N[C@H]3CCOc4ccccc43)cnc2c1-c1c(F)cccc1Cl` [Example 10, (S)-3-(2-chloro-6-fluorophenyl)-N-(chroman-4-yl)-7-isopropyl-2-methylpyrazolo[1,5-a]pyrimidine-6-carboxamide] the same measures were 6.17 mL/min/kg and 1480 min.
As for `CCc1c(C(=O)N[C@H]2CCOc3ccccc32)cnc2c(-c3cc(F)cc(F)c3F)c(F)ccc12` [Example 1, N-[(4S)-3,4-Dihydro-2H-chromen-4-yl]-4-ethyl-7-fluoro-8-(2,3,5-trifluorophenyl)quinoline-3-carboxamide], in data set [1] (plasma), the clearance is 10 mL/min/kg and the half-life is 3120 min.

Values taken from patent US20260294890A1, “LONG-TERM PREVENTION AND/OR TREATMENT OF A DISEASE BY SLO-1 INHIBITORS” (Elanco Animal Health GmbH, priority 2023, published 2026).
